Key:
Assay type in all cases: biochemical
[1] = molecular target: EGFR (Homo sapiens, UniProt P00533); assay: Inhibition of a panel of kinases, in vitro HotSpot kinase assay: EGFR; details: D-compounds panel data; 1 μM ATP
Experimental: (§1) The degree of inhibition of a panel of kinases is determined using the in vitro HotSpot kinase assay (purified enzymes, ^33P-ATP, an appropriate substrate and 1 μM ATP).

[2] = molecular target: LCK (Homo sapiens, UniProt P06239); assay: Inhibition of a panel of kinases, in vitro HotSpot kinase assay: LCK; details: D-compounds panel data; 1 μM ATP; read-out: IC50 LCK
Sequence of LCK (P06239 whole entry): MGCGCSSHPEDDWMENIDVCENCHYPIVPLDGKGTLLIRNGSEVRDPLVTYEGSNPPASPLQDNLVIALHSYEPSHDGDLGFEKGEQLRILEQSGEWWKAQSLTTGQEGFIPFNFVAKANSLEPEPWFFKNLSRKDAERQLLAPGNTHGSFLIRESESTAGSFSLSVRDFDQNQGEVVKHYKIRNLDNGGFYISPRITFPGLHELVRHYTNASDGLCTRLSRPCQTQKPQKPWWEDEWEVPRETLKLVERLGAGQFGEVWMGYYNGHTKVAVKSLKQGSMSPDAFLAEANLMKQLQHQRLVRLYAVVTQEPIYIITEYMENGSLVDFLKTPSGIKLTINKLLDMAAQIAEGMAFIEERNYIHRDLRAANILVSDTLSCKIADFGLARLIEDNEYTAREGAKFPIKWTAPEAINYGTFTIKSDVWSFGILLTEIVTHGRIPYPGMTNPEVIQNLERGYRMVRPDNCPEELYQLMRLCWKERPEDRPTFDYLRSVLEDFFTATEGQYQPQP

[3] = molecular target: T1, ITK (Homo sapiens, UniProt Q08881); assay: Inhibition of a panel of kinases, in vitro HotSpot kinase assay: ITK; details: D-compounds panel data; 1 μM ATP
T1 sequence (Q08881 1-620): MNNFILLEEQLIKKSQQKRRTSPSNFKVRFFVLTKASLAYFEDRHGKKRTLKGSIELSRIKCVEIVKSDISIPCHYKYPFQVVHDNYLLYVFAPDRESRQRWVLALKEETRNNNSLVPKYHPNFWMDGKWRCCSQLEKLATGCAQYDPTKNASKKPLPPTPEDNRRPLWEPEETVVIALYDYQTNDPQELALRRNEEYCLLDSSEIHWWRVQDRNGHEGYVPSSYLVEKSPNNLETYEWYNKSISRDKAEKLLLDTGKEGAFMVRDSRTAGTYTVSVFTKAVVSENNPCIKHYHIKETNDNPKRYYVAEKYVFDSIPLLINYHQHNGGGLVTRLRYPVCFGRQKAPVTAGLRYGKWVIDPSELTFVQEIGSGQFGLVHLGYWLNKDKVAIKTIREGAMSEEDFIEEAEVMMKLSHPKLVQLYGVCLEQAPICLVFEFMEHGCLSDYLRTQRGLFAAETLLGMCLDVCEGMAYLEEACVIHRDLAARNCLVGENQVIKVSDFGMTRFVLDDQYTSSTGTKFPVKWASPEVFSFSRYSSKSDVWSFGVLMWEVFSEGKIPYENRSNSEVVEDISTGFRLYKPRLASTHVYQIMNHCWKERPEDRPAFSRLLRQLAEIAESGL
Experimental: as §1

[4] = molecular target: T2, JAK3 (Homo sapiens, UniProt P52333); assay: Inhibition of a panel of kinases, in vitro HotSpot kinase assay: JAK3; details: D-compounds panel data; 1 μM ATP; read-out: IC50 JAK3
T2 sequence (P52333 1-1124): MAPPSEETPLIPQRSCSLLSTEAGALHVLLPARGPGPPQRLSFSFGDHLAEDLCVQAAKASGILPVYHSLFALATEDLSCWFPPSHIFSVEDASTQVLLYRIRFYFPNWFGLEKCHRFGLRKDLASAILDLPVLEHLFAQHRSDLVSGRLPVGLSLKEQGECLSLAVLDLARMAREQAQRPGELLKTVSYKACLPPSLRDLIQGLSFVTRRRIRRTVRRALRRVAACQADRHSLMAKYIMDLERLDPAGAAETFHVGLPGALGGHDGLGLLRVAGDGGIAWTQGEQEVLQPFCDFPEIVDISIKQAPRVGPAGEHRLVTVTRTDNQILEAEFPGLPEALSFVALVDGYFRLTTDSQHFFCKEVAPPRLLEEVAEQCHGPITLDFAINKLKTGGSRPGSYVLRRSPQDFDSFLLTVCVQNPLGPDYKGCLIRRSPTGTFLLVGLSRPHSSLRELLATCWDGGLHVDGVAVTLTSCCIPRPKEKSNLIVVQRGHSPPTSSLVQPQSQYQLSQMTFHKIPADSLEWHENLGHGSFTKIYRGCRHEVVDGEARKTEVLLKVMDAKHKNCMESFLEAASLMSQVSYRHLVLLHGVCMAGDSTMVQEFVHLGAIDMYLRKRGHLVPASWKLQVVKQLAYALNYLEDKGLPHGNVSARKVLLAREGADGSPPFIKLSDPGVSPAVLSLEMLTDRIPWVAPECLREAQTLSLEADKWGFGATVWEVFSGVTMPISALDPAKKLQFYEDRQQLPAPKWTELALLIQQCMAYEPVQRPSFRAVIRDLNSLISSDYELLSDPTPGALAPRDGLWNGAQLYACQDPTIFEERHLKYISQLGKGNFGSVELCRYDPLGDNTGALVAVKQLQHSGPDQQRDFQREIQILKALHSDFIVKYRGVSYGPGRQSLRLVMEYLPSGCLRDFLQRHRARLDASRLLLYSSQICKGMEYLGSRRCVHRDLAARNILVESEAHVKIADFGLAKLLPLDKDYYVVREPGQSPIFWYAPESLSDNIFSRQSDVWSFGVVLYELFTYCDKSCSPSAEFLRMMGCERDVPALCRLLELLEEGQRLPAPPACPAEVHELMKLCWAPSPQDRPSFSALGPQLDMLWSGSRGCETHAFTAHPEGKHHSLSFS

[5] = molecular target: T3, TEC (Homo sapiens, UniProt P42680); assay: Inhibition of a panel of kinases, in vitro HotSpot kinase assay: TEC; details: D-compounds panel data; 1 μM ATP
T3 sequence (P42680 1-631): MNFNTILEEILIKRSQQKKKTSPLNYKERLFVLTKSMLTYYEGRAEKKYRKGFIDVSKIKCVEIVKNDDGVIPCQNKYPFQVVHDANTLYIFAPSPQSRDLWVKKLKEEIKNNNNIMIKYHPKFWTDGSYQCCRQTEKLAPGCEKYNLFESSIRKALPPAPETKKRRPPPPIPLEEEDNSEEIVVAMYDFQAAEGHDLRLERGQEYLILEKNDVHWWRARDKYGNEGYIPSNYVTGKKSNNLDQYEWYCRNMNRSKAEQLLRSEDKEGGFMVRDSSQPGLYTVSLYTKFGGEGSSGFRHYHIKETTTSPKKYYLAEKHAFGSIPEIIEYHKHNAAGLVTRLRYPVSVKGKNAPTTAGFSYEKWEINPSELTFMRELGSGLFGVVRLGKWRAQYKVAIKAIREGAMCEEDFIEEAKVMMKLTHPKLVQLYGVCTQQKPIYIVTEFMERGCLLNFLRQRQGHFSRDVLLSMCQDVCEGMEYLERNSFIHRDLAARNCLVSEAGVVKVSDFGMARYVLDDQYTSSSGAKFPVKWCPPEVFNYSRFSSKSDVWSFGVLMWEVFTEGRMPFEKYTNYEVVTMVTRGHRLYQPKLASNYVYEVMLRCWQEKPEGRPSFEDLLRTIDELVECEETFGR
Experimental: as §1

Sequence of EGFR (P00533 25-1210): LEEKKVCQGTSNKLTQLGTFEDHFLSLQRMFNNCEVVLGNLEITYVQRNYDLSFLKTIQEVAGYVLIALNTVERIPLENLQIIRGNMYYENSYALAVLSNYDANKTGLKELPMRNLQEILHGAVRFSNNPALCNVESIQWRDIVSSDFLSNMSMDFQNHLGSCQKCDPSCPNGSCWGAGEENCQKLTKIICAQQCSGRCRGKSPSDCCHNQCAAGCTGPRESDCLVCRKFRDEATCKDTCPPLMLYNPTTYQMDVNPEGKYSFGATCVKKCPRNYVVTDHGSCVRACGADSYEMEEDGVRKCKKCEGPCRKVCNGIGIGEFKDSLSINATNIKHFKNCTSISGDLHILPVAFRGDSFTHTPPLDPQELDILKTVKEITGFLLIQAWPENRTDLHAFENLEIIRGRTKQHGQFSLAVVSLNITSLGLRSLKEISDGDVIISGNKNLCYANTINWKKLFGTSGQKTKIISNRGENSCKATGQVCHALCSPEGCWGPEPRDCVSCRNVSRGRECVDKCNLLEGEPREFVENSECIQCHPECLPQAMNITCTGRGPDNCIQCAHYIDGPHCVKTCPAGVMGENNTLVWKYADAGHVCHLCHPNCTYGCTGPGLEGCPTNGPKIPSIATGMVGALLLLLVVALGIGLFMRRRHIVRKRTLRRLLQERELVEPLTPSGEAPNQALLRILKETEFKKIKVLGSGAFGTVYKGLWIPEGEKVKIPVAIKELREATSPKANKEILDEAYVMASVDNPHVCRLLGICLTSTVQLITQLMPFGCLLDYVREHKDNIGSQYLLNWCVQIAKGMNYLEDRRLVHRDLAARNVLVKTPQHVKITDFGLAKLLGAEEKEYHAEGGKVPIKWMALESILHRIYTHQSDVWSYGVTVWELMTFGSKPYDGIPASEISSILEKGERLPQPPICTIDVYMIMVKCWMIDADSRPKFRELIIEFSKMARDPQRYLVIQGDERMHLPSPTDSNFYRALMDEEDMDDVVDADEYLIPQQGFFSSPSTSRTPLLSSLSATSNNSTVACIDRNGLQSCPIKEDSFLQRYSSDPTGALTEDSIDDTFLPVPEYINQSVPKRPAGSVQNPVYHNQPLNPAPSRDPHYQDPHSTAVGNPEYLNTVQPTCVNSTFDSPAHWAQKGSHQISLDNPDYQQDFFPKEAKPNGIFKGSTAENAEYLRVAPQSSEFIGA

SMILES	IC50 [1]	IC50 [2]	IC50 [3]	IC50 [4]	IC50 [5]
C/C=C/c1ccc(C(=O)N[C@@H]2CCCN(c3cnc(C(N)=O)c(Nc4cc(C)ns4)c3)[C@@H]2C)c(F)c1 [Example D-170, 5-[(2R,3R)-3-{2-fluoro-4-[(1E)-prop-1-en-1-yl]benzamido}-2-methylpiperidin-1-yl]-3-[(3-methyl-1,2-thiazol-5-yl)amino]pyridine-2-carboxamide]	100 to 1000 nM	10 to 100 nM	> 10000 nM	1000 to 10000 nM	100 to 1000 nM
C[C@@H]1[C@H](NC(=O)c2ccc(C3CC3)cc2)CCCN1c1cnc(C(N)=O)c(Nc2cnn(C3CCN(C)CC3)c2)n1 [Example D-185, 5-[(2R,3R)-3-(4-cyclopropylbenzamido)-2-methylpiperidin-1-yl]-3-{[1-(1-methylpiperidin-4-yl)-1H-pyrazol-4-yl]amino}pyrazine-2-carboxamide]	100 to 1000 nM	10 to 100 nM	100 to 1000 nM	1000 to 10000 nM	10 to 100 nM
C[C@@H]1[C@H](NC(=O)c2ccc(C3CC3)nc2)CCCN1c1cnc(C(N)=O)c(Nc2cnn(C)c2)n1 [Example D-18, 5-[(2R,3R)-3-(6-cyclopropylpyridine-3-amido)-2-methylpiperidin-1-yl]-3-[(1-methyl-1H-pyrazol-4-yl)amino]pyrazine-2-carboxamide]	1000 to 10000 nM	100 to 1000 nM	100 to 1000 nM	1000 to 10000 nM	10 to 100 nM
C[C@@H]1[C@H](NC(=O)c2ccc(C(C)(C)C)cc2)CCCN1c1cnc(C(N)=O)c(Nc2ccc(N3CCN(C)CC3)cc2)n1 [Example D-14, 5-[(2R,3R)-3-(4-tert-butylbenzamido)-2-methylpiperidin-1-yl]-3-{[4-(4-methylpiperazin-1-yl)phenyl]amino}pyrazine-2-carboxamide]	1000 to 10000 nM	10 to 100 nM	100 to 1000 nM	1000 to 10000 nM	10 to 100 nM
C[C@@H]1[C@H](NC(=O)c2cnc(C3CC3)cn2)CCCN1c1cnc(C(N)=O)c(Nc2cnn(C)c2)n1 [Example D-205, 5-[(2R,3R)-3-(5-cyclopropylpyrazine-2-amido)-2-methylpiperidin-1-yl]-3-[(1-methyl-1H-pyrazol-4-yl)amino]pyrazine-2-carboxamide]	100 to 1000 nM	10 to 100 nM	100 to 1000 nM	1000 to 10000 nM	≤ 10 nM
C[C@@H]1[C@H](NC(=O)c2ccc(C3CC3)cc2)CCCN1c1cnc(C(N)=O)c(Nc2cnn(C)c2)c1 [Example D-207, 5-[(2R,3R)-3-(4-cyclopropylbenzamido)-2-methylpiperidin-1-yl]-3-[(1-methyl-1H-pyrazol-4-yl)amino]pyridine-2-carboxamide]	> 10000 nM	100 to 1000 nM	1000 to 10000 nM	100 to 1000 nM	100 to 1000 nM
Cn1cc(Nc2nc(N3C4CCC(NC(=O)c5ccc(C6CC6)cc5)C3CC4)cnc2C(N)=O)cn1 (single isomer, unassigned) [Example D-201, 5-[2-(4-cyclopropylbenzamido)-8-azabicyclo[3.2.1]octan-8-yl]-3-[(1-methyl-1H-pyrazol-4-yl)amino]pyrazine-2-carboxamide]	1000 to 10000 nM	100 to 1000 nM	1000 to 10000 nM	1000 to 10000 nM	≤ 10 nM
C[C@@H]1[C@H](NC(=O)c2ccc(C3CC3)nc2)CCCN1c1cnc(C(N)=O)c(Nc2ccc(N3CCN(C)CC3)cc2)n1 [Example D-203, 5-[(2R,3R)-3-(6-cyclopropylpyridine-3-amido)-2-methylpiperidin-1-yl]-3-{[4-(4-methylpiperazin-1-yl)phenyl]amino}pyrazine-2-carboxamide]	100 to 1000 nM	10 to 100 nM	10 to 100 nM	1000 to 10000 nM	≤ 10 nM

The next lines start with the values.

IC50 [1]	IC50 [2]	IC50 [3]	IC50 [4]	IC50 [5]	SMILES
1000 to 10000 nM	100 to 1000 nM	100 to 1000 nM	1000 to 10000 nM	≤ 10 nM	C[C@@H]1[C@H](NC(=O)c2ccc(C(C)(O)C(F)(F)F)cc2)CCCN1c1cnc(C(N)=O)c(Nc2cnn(C)c2)n1 (single isomer, unassigned) [Example D-213]
1000 to 10000 nM	100 to 1000 nM	100 to 1000 nM	1000 to 10000 nM	≤ 10 nM	Cc1ncc(Nc2nc(N3CCC[C@@H](NC(=O)c4ccc(C5CC5)cc4)[C@H]3C)cnc2C(N)=O)s1 [Example D-210, 5-[(2R,3R)-3-(4-cyclopropylbenzamido)-2-methylpiperidin-1-yl]-3-[(2-methyl-1,3-thiazol-5-yl)amino]pyrazine-2-carboxamide]
100 to 1000 nM	100 to 1000 nM	100 to 1000 nM	100 to 1000 nM	≤ 10 nM	C[C@@H]1[C@H](NC(=O)c2ccc(C3(O)CC3)cc2)CCCN1c1cnc(C(N)=O)c(Nc2cnn(C)c2)n1 [Example D-235, 5-[(2R,3R)-3-[4-(1-hydroxycyclopropyl)benzamido]-2-methylpiperidin-1-yl]-3-[(1-methyl-1H-pyrazol-4-yl)amino]pyrazine-2-carboxamide]
100 to 1000 nM	10 to 100 nM	10 to 100 nM	100 to 1000 nM	≤ 10 nM	C[C@@H]1[C@H](NC(=O)c2ccc3c(cnn3C)c2)CCCN1c1cnc(C(N)=O)c(Nc2ccc(N3CCN(C)CC3)cc2)n1 [Example D-234, N-[(2R,3R)-1-(5-carbamoyl-6-{[4-(4-methylpiperazin-1-yl)phenyl]amino}pyrazin-2-yl)-2-methylpiperidin-3-yl]-1-methyl-1H-indazole-5-carboxamide]
1000 to 10000 nM	10 to 100 nM	100 to 1000 nM	1000 to 10000 nM	≤ 10 nM	C[C@@H]1[C@H](NC(=O)c2ccc(OC3CC3)cc2)CCCN1c1cnc(C(N)=O)c(Nc2cnn(C)c2)n1 [Example D-219, 5-[(2R,3R)-3-(4-cyclopropoxybenzamido)-2-methylpiperidin-1-yl]-3-[(1-methyl-1H-pyrazol-4-yl)amino]pyrazine-2-carboxamide]

From US20210070748A1, “INHIBITORS OF BRUTONS TYROSINE KINASE” (Pharmacyclics LLC, priority 2015, published 2021)
